Paper PMC9851200, “Multiparameter phenotypic screening for endogenous TFEB and TFE3 translocation identifies novel chemical series modulating lysosome function” (Autophagy, 2022)

What was measured:
Assay type in all cases: binding
[1] = target: kinases (KINOMEscan panel) (Homo sapiens, UniProt P22694); settings: PRKACB; NEW KINOMEscan
[2] = target: T1, kinases (KINOMEscan panel) (Homo sapiens, UniProt P42681); settings: kinase TXK; NEW KINOMEscan
T1 sequence (P42681 1-527): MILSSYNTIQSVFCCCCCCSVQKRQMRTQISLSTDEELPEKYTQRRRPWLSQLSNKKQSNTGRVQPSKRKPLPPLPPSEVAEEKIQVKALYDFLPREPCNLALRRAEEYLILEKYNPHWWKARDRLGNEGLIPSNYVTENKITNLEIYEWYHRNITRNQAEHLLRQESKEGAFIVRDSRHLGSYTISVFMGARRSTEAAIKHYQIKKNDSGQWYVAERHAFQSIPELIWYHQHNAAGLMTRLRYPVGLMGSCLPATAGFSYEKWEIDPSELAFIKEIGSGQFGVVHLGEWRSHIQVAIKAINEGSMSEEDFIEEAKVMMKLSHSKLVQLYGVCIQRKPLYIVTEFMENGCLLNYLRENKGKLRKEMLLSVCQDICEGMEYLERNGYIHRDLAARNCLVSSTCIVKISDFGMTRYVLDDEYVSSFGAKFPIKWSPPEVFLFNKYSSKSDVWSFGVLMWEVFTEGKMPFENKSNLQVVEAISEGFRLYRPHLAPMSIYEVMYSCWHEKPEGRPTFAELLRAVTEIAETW

[3] = target: kinases (KINOMEscan panel) (Homo sapiens, UniProt Q15569); settings: TESK1; NEW KINOMEscan
Chain of kinases (KINOMEscan panel) (Homo sapiens, UniProt Q15569) (Q15569 whole entry): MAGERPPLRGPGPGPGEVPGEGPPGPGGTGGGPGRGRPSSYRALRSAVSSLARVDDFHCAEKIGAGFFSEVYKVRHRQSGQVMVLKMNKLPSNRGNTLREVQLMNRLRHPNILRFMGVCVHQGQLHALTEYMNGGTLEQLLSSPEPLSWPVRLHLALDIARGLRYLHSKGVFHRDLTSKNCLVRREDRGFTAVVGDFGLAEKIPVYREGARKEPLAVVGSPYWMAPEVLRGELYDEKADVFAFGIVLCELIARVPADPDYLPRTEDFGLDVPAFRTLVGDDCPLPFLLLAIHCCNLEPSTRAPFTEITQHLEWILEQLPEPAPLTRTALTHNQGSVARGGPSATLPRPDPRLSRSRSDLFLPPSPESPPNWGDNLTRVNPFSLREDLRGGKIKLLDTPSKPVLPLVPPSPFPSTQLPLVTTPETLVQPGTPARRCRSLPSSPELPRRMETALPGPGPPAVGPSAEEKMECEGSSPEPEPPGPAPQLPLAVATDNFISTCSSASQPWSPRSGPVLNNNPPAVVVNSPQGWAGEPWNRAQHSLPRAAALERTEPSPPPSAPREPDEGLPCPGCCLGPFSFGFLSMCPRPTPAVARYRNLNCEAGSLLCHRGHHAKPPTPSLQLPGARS

[4] = target: kinases (KINOMEscan panel) (Homo sapiens, UniProt Q9Y6M4); settings: CSNK1G3; NEW KINOMEscan
Chain of kinases (KINOMEscan panel) (Homo sapiens, UniProt Q9Y6M4) (Q9Y6M4 whole entry): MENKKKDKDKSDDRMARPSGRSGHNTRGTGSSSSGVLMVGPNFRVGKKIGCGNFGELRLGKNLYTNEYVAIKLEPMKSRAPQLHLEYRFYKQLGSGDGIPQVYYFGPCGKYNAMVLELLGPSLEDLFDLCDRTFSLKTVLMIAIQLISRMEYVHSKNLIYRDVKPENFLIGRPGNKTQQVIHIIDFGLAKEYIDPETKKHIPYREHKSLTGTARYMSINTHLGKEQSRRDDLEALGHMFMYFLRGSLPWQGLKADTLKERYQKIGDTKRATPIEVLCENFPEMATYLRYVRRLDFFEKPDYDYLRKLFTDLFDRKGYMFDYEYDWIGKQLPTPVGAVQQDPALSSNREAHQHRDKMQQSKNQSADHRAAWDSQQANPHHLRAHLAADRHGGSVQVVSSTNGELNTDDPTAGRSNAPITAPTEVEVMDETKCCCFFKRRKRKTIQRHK

[5] = target: T2, kinases (KINOMEscan panel) (Homo sapiens, UniProt Q7L7X3); settings: kinase TAOK1; NEW KINOMEscan
T2 sequence (Q7L7X3 1-1001): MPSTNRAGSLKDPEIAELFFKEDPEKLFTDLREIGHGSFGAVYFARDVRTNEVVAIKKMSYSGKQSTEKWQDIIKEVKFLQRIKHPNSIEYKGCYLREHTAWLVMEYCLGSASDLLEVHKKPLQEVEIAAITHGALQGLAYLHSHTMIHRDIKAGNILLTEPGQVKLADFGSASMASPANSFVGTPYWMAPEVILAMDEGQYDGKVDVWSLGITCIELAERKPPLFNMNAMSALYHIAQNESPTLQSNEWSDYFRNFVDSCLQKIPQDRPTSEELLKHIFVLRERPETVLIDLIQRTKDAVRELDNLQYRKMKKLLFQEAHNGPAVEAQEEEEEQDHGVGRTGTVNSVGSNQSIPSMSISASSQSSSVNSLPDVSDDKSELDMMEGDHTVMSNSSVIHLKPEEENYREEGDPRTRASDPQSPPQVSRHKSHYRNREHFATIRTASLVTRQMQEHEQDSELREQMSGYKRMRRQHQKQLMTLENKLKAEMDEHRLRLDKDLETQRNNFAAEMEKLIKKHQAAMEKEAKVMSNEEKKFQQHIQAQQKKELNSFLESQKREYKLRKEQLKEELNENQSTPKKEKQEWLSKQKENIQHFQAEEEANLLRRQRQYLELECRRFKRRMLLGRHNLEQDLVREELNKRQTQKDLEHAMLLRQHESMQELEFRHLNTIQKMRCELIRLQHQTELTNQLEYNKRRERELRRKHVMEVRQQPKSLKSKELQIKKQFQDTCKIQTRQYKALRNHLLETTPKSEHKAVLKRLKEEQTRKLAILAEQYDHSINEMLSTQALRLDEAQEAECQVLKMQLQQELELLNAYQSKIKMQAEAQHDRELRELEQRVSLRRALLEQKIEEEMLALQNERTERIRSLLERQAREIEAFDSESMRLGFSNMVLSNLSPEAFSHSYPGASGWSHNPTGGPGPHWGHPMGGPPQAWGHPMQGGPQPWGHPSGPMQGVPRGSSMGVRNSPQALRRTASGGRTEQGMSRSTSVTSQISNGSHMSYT

Structure (SMILES): Cc1cccc(-c2nc(Nc3ccc4nn(C)cc4c3)c3ccccc3n2)n1 [NK167]
- KINOMEscan PRKACB [1]: 1
- KINOMEscan TXK [2]: 3
- KINOMEscan TESK1 [3]: 0
- KINOMEscan CSNK1G3 [4]: 0
- KINOMEscan TAOK1 [5]: 0

Structure (SMILES): Cc1cccc(-c2nc(N(C)c3ccc4ncsc4c3)c3ccccc3n2)n1 [NK-161]
- KINOMEscan PRKACB [1]: 6
- KINOMEscan TXK [2]: 0
- KINOMEscan TESK1 [3]: 0
- KINOMEscan CSNK1G3 [4]: 0
- KINOMEscan TAOK1 [5]: 1
